Consider seven compounds from publication PMC12856970 (Clinical Pharmacology in Drug Development, 2025).

Data set [1] is described as follows: Phase 1 DDI study: plasma PK of atorvastatin and its metabolites after atorvastatin alone or with steady-state asciminib (LC-MS/MS, non-compartmental). Particulars: for AUCinf, Gmean (GCV%) / AUCinf, Mean (SD) / AUCinf, Median (min, max) / AUClast, Gmean (GCV%) / AUClast, Mean (SD) / AUClast, Median (min, max) / Cmax, Gmean (GCV%) / Cmax, Mean (SD) / Cmax, Median (min, max) / T1/2, Gmean (GCV%) / T1/2, Mean (SD) / T1/2, Median (min, max) / Tmax, Median (min, max): plasma; for AUCinf, Adjusted Gmean / AUClast, Adjusted Gmean / Cmax, Adjusted Gmean: linear mixed-effects model, back-transformed; for AUCinf Gmean ratio / AUClast Gmean ratio / Cmax Gmean ratio: atorvastatin + asciminib/atorvastatin; for Effect of asciminib on Cmax, AUClast and AUCinf (in words): atorvastatin + steady-state asciminib versus atorvastatin alone.

Data set [2] has as its system CYP3A4. Particulars: midazolam single dose co-administered with asciminib 40 mg BID at steady state vs alone; cited from earlier work.
Data set [3] deals with CYP3A4. The following applies: midazolam with asciminib 200 mg BID; cited from earlier work.
Details of data set [4]: method as in PMID 30580575. Particulars: monotherapies; cited from earlier work.
Data set [5] relates to OATP. Also on record: method as in PMID 27317801. The following applies: after a single dose of rifampicin, healthy participants; cited from earlier work.
Data set [6] deals with OATP1B. As to the kind of experiment: Phase 1 DDI study: plasma CP-1 AUC0-24 as endogenous biomarker of OATP1B, without or with steady-state asciminib. Particulars: for AUC0‐24, Adjusted Gmean: linear mixed-effects model.
Data set [7] has as its system OATP1B1. Particulars: in vitro; cited from earlier work.
Data set [8] has as its system BCRP. Particulars: in vitro; cited from earlier work.
Data set [9] has as its system OATP1B3. The following applies: in vitro; cited from earlier work.
A short description of data set [10]: Phase 1 DDI study: safety and tolerability (AEs, ECG). It is filed as in vivo, human (healthy participants). Particulars: asciminib 80 mg QD multiple doses alone or with atorvastatin 20 mg.
Data set [11] deals with OATP1B. Also on record: method as in data on file. Particulars: single asciminib dose of 200 mg; ref data on file; cited from earlier work.
The nature of data set [12]: Phase 1 DDI study: asciminib plasma trough concentration (Ctrough). Particulars: asciminib 80 mg QD (i.e. on day 8). The data set is classed as in vivo, human (healthy participants).
For data set [13] the following is noted: cited from earlier work.
For data set [14], the system named is P‐gp. Particulars: in vitro; cited from earlier work.
The mark [15] stands for this setting: atorvastatin 20 mg single dose + asciminib 80 mg QD at steady state (day 9).
[16] abbreviates: atorvastatin 20 mg single oral dose alone (day 1).
The mark [17] stands for this setting: atorvastatin + asciminib 80 mg QD steady state.
[18] abbreviates: atorvastatin + asciminib at steady state.
Setting [19] is: steady state, 40 mg BID regimen.

“Also recorded” adds a separate entry of the source. Like-named read-outs stand apart in the source and are kept apart here.

Take `CC(C)c1c(C(=O)Nc2ccccc2O)c(-c2ccccc2)c(-c2ccc(F)cc2)n1CC[C@@H](O)C[C@@H](O)CC(=O)O` [o‐Hydroxy‐atorvastatin, o‐hydroxy‐atorvastatin]: in [1] (setting [15]), the “AUCinf, Gmean (GCV%)” value is on record as 41.7 (34.9) ng x h/mL; the “AUCinf, Mean (SD)” value was 44.1 (15.5) ng x h/mL; the “AUCinf, Median (min, max)” value is recorded as 42.8 (23.6, 81.7) ng x h/mL; the “AUClast, Gmean (GCV%)” value is 39.2 (36.8) ng x h/mL. For the same compound, in data set [1] (setting [15]), the “AUClast, Mean (SD)” value was 41.7 (15.4) ng x h/mL; the “AUClast, Median (min, max)” value is recorded as 40.1 (21.4, 79.2) ng x h/mL; the “Cmax, Gmean (GCV%)” value is 3.98 (45.4) ng/mL; the “Cmax, Mean (SD)” value is 4.27 (2.11) ng/mL. In data set [1] (setting [15]), the “Cmax, Median (min, max)” value is recorded as 3.88 (1.56, 11.3) ng/mL; the “T1/2, Gmean (GCV%)” value is 11.7 (28.4) h; the “T1/2, Mean (SD)” value is 12.2 (3.43) h; the “T1/2, Median (min, max)” value is 12.2 (7.33, 21.2) h. For the same compound, in data set [1] (setting [15]), the “Tmax, Median (min, max)” value is listed as 1.50 (0.50, 6.00) h. In [1] (setting [16]), the “AUCinf, Gmean (GCV%)” value is 41.2 (34.7) ng x h/mL; the “AUCinf, Mean (SD)” value is reported as 43.4 (14.3) ng x h/mL; the “AUCinf, Median (min, max)” value is recorded as 44.1 (23.1, 77.7) ng x h/mL; the “AUClast, Gmean (GCV%)” value was 37.0 (42.2) ng x h/mL. Further, in data set [1] (setting [16]), the “AUClast, Mean (SD)” value was 39.8 (15.0) ng x h/mL; the “AUClast, Median (min, max)” value is 41.6 (15.2, 75.8) ng x h/mL; the “Cmax, Gmean (GCV%)” value was 3.66 (56.9) ng/mL; the “Cmax, Mean (SD)” value is 4.14 (1.98) ng/mL. Moreover, in data set [1] (setting [16]), the “Cmax, Median (min, max)” value was 4.04 (1.42, 8.11) ng/mL; the “T1/2, Gmean (GCV%)” value is recorded as 9.64 (28.0) h; the “T1/2, Mean (SD)” value was 10.0 (2.95) h; the “T1/2, Median (min, max)” value is reported as 9.67 (5.12, 19.9) h. Besides, the “Tmax, Median (min, max)” value in [1] (setting [16]) was 2.00 (0.50, 5.00) h. Besides, in [1] (setting [17]), the “AUCinf, Adjusted Gmean” value amounted to 41.7 ng x h/mL; the “AUClast, Adjusted Gmean” value stood at 39.4 ng x h/mL; the “Cmax, Adjusted Gmean” value was 3.95 ng/mL. Further, in [1] (setting [18]), the “Time post-dose at which mean Cmax was observed (mean concentration-time profile)” value (“Time post-dose” below) is on record as 2 h. For the same compound, in data set [1], the “AUCinf Gmean ratio” value is 1.02; the “AUClast Gmean ratio” value worked out at 1.07; the “Cmax Gmean ratio” value is 1.08; the “Effect of asciminib on Cmax, AUClast and AUCinf (in words)” value is “did not affect; also recorded: comparable between treatments; also recorded: negligible”. For the same compound, in data set [1] (atorvastatin alone), the “Time post-dose” value came to 2 h; the “AUCinf, Adjusted Gmean” value came to 40.7 ng x h/mL; the “AUClast, Adjusted Gmean” value was determined as 37.0 ng x h/mL; the “Cmax, Adjusted Gmean” value is 3.66 ng/mL.

Consider `Cc1ncc2n1-c1ccc(Cl)cc1C(c1ccccc1F)=NC2` [midazolam], for which, in data set [2], the “Increase in AUCinf” value is listed as 28%, the “Increase in AUClast” value is reported as 27% and the “Increase in Cmax” value is 11%. For the same compound, in data set [3], the “Increase in AUCinf (PBPK prediction)” value is on record as 88% and the “Increase in Cmax (PBPK prediction)” value is given as 58%.

As to `CC(C)c1c(C(=O)Nc2ccccc2)c(-c2ccccc2)c(-c2ccc(F)cc2)n1CC[C@@H](O)C[C@@H](O)CC(=O)O` [Atorvastatin], in data set [4], the “Rate of hospitalization due to rhabdomyolysis” value was 0.44 per 10,000 patient‐years.

Turning to coproporphyrin‐1 [CP‐1], in [5], the “Increase in Cmax” value was 5.7 fold. The “AUC0‐24 Gmean ratio” value in [6] (atorvastatin + asciminib/atorvastatin) is 1.02. Also, the “Effect of asciminib on CP‐1 plasma concentrations (in words)” value in data set [6] (steady-state asciminib 80 mg QD) is listed as “not affected; also recorded: remained unaffected”. Moreover, the “AUC0‐24, Adjusted Gmean” value is recorded as 12,500 pg x h/mL in data set [6] (treatment 'Atorvastatin + asciminib' (steady-state asciminib)) and 12,300 pg x h/mL in [6] (treatment 'Atorvastatin' (without asciminib)). Also, the “AUC0‐24, Gmean (GCV%)” value in data set [6] (with asciminib 80 mg QD, day 8, plasma) is 12,600 pg x h/mL; in [6] (without asciminib, day 4, plasma) it was 12,300 pg x h/mL.

For `CC[C@H](C)C(=O)O[C@H]1C[C@H](O)C=C2C=C[C@H](C)[C@H](CC[C@@H](O)C[C@@H](O)CC(=O)O)[C@H]21` [pravastatin], the “Rate of hospitalization due to rhabdomyolysis” value in data set [4] is 0.44 per 10,000 patient‐years.

Regarding `CC(C)c1c(C(=O)Nc2ccc(O)cc2)c(-c2ccccc2)c(-c2ccc(F)cc2)n1CC[C@@H](O)C[C@@H](O)CC(=O)O` [p‐Hydroxy‐atorvastatin, p‐hydroxy‐atorvastatin], in [1] (setting [15]), the “AUCinf, Gmean (GCV%)” value was 6.2 (95.2) ng x h/mL; the “AUCinf, Mean (SD)” value is 7.67 (4.91) ng x h/mL; the “AUCinf, Median (min, max)” value is on record as 6.63 (1.50, 15.7) ng x h/mL; the “AUClast, Gmean (GCV%)” value is on record as 2.9 (87.7) ng x h/mL. Besides, in [1] (setting [15]), the “AUClast, Mean (SD)” value was 3.83 (3.28) ng x h/mL; the “AUClast, Median (min, max)” value is 2.99 (0.717, 13.6) ng x h/mL; the “Cmax, Gmean (GCV%)” value is listed as 0.16 (48.0) ng/mL; the “Cmax, Mean (SD)” value is 0.171 (0.0880) ng/mL. Moreover, in data set [1] (setting [15]), the “Cmax, Median (min, max)” value was 0.145 (0.0699, 0.425) ng/mL; the “T1/2, Gmean (GCV%)” value is recorded as 22.8 (58.5) h; the “T1/2, Mean (SD)” value is 25.3 (10.9) h; the “T1/2, Median (min, max)” value was 26.0 (8.45, 40.9) h. For the same compound, the “Tmax, Median (min, max)” value in data set [1] (setting [15]) was 10.00 (1.00, 12.00) h. For the same compound, in data set [1] (atorvastatin 20 mg single dose + asciminib 80 mg QD at steady state (day 9), listed as p‐hydroxy‐atorvastatin), the “Tmax, Median (min, max)” value is on record as “approximately 10 h”. Also, in data set [1] (setting [16]), the “AUCinf, Gmean (GCV%)” value is 7.4 (53.2) ng x h/mL; the “AUCinf, Mean (SD)” value is listed as 8.16 (4.48) ng x h/mL; the “AUCinf, Median (min, max)” value is on record as 6.60 (4.86, 14.6) ng x h/mL; the “AUClast, Gmean (GCV%)” value is 3.1 (69.8) ng x h/mL. In data set [1] (setting [16]), the “AUClast, Mean (SD)” value was 3.73 (2.75) ng x h/mL; the “AUClast, Median (min, max)” value is reported as 2.56 (0.964, 12.5) ng x h/mL; the “Cmax, Gmean (GCV%)” value is reported as 0.17 (53.8) ng/mL; the “Cmax, Mean (SD)” value is on record as 0.189 (0.112) ng/mL. For the same compound, in data set [1] (setting [16]), the “Cmax, Median (min, max)” value was 0.144 (0.0793, 0.468) ng/mL; the “T1/2, Gmean (GCV%)” value is listed as 30.4 (24.6) h; the “T1/2, Mean (SD)” value is 31.1 (7.50) h; the “T1/2, Median (min, max)” value is listed as 30.4 (24.3, 39.3) h. The “Tmax, Median (min, max)” value in [1] (setting [16]) is reported as 10.00 (1.50, 12.01) h. The “Tmax, Median (min, max)” value in data set [1] (atorvastatin 20 mg single oral dose alone (day 1), listed as p‐hydroxy‐atorvastatin) is given as “approximately 10 h”. Moreover, in data set [1] (setting [17]), the “AUCinf, Adjusted Gmean” value is on record as 5.92 ng x h/mL; the “AUClast, Adjusted Gmean” value came out at 2.89 ng x h/mL; the “Cmax, Adjusted Gmean” value worked out at 0.156 ng/mL. Besides, in data set [1] (setting [18]), the “Time post-dose” value amounted to 10 h. Moreover, in data set [1], the “AUCinf Gmean ratio” value stood at 0.74; the “AUClast Gmean ratio” value is 0.98; the “Cmax Gmean ratio” value is given as 0.98; the “Effect of asciminib on Cmax, AUClast and AUCinf (in words)” value was “did not affect; also recorded: negligible”. In addition, in data set [1] (atorvastatin alone), the “Time post-dose” value is reported as 10 h; the “AUCinf, Adjusted Gmean” value is on record as 8.04 ng x h/mL; the “AUClast, Adjusted Gmean” value was 2.96 ng x h/mL; the “Cmax, Adjusted Gmean” value is given as 0.160 ng/mL.

As for `O=C(Nc1ccc(OC(F)(F)Cl)cc1)c1cnc(N2CC[C@@H](O)C2)c(-c2ccn[nH]2)c1` [asciminib, Asciminib], in [7], the “Inhibition of OATP1B1 (in words)” value is “could inhibit; also recorded: can inhibit”. Besides, the “Inhibition of BCRP (in words)” value in data set [8] was “could inhibit; also recorded: can inhibit”. For the same compound, in [9], the “Inhibition of OATP1B3 (in words)” value is “could inhibit; also recorded: can inhibit”. Moreover, in [10], the “Tolerability (in words)” value is on record as “well tolerated”. Further, in data set [11], the “DDI effect on CP‐1 (in words)” value was “no DDI effect”. The “Time of dosing until steady state was attained” value in data set [12] was 3 days. Also, the “Time of dosing to reach steady-state levels” value in data set [13] is on record as no more than 3 days. In addition, in [13] (setting [19]), the “AUC0‐12, Gmean” value was 5262 ng x h/mL and the “Cmax, Gmean” value is 793 ng/mL. The “Cmax, Gmean” value in [13] (steady state, 80 mg QD regimen) is given as 1781 ng/mL. In data set [14], the “Inhibition of P‐gp (in words)” value is given as “could inhibit; also recorded: can inhibit”.
